The values below come from patent publication US7608712B2, “Pyridine imidazoles and aza-indoles as progesterone receptor modulators” (Janssen Pharmaceutica N.V., priority 2004, dated 2009).

The structures appear in SMILES notation. pEC50, pIC50: −log10 of the molar value.

Broadly, the pIC50 is the IC50 on a negative log10 scale, so that one unit is a factor of ten. As a reminder, the pEC50 is −log10 of the EC50, conventionally taken in molar units. A high value points to a small EC50.

The subject of one test is T47D human breast cancer cells. As to the kind of experiment: T47D alkaline phosphatase assay (In Vitro Test). Conditions: Homo sapiens, T47D. The format is cell-based. As to the method:
T47D human breast cancer cells are grown in RPMI medium without phenol red (Invitrogen) containing 10% (v/v) heat-inactivated fetal bovine serum (FBS; Hyclone), 1% (v/v) penicillin-streptomycin (Invitrogen), 1% (w/v) glutamine (Invitrogen), and […] insulin (Sigma). Incubation conditions are 37 °C in a humidified 5% (v/v) carbon dioxide environment. For assay, the cells are plated in 96-well tissue culture plates at 10,000 cells per well in assay medium [RPMI medium without phenol red (Invitrogen) containing 5% (v/v) charcoal-treated FBS (Hyclone) and 1% (v/v) penicillin-streptomycin (Invitrogen)]. Two days later, the medium is decanted and the compounds are added in a final concentration of 0.1% (v/v) dimethyl sulfoxide in fresh assay medium. Twenty-four hours later, an alkaline phosphatase assay is performed using a SEAP kit (BD Biosciences Clontech, Palo Alto, Calif.). Briefly, the medium is decanted and the cells are fixed for 30 minutes at room temperature with 5% (v/v) formalin (Sigma). The cells are washed once with room temperature Hank's buffered saline solution (Invitrogen). Equal volumes (0.05 mL) of 1× Dilution Buffer, Assay Buffer and 1:20 substrate/enhancer mixture are added. After 1-hour incubation at room temperature in the dark, the lysate is transferred to a white 96-well plate (Dynex) and luminescence is read using a LuminoSkan Ascent (Thermo Electron, Woburn, Mass.).
Regarding `CC1(C)C(=O)Nc2ncc(-c3cccc(F)c3)cc21` [Example 31, 5-(3-Fluoro-phenyl)-3,3-dimethyl-1,3-dihydro-pyrrolo[2,3-b]pyridin-2-one], the pIC50 is 5.35.

Staying with this test, now noted: Homo sapiens, T47D, read-out: % inh.
For `CC1(C)C(=O)Nc2ncc(-c3cccc(F)c3)cc21` [Example 31, 5-(3-Fluoro-phenyl)-3,3-dimethyl-1,3-dihydro-pyrrolo[2,3-b]pyridin-2-one], the inhibition at 3 µM amounted to 95% and the inhibition at 10 µM is 92%.

Still in this test, the particulars now being: Homo sapiens, T47D; @ 3 uM; read-out: % inh.
With `O=C1Nc2ncc(-c3cccc(F)c3)cc2C12CCCCC2` [Example 32, 5-(3-Fluoro-phenyl)-3,3-spiro[cyclohexane]-1,3-dihydro-pyrrolo[2,3-b]pyridin-2-one], the inhibition at 3 µM was found to be 58%.

Staying with this test, now noted: Homo sapiens, T47D; @ 10 uM; read-out: % inh.
Consider `O=C1Nc2ncc(-c3cccc(F)c3)cc2C12CCCCC2` [Example 32, 5-(3-Fluoro-phenyl)-3,3-spiro[cyclohexane]-1,3-dihydro-pyrrolo[2,3-b]pyridin-2-one], for which the inhibition at 10 µM was 58%.

The same test, now with this note: Homo sapiens, T47D; Table 4; read-out: IC50.
As to `O=C1Nc2ncc(-c3cccc(F)c3)cc2C12CCCCC2` [Example 32, 5-(3-Fluoro-phenyl)-3,3-spiro[cyclohexane]-1,3-dihydro-pyrrolo[2,3-b]pyridin-2-one], the pIC50 was 5.15.

The same test, now with this note: Homo sapiens, T47D; activation (footnote to Table 3).
For the molecule `O=C1N=C2C=CC(c3ccc(Cl)c(Cl)c3)=CN2C12CCCC2` [Example 28, 6-(3,4-Dichloro-phenyl)-3,3-spiro[pentane]-imidazo[1,2-a]pyridin-2-one], the pEC50 is 5.71.

Still in this test, the particulars now being: Table 3; test concentration not given.
For the molecule `CC1(C)C(=O)N=C2C=CC(Br)=CN21` [Example 1-C1, 6-Bromo-3,3-dimethyl-imidazo[1,2-a]pyridin-2-one], the “% inh.” value amounted to 53%.
Still for that read-out and setting: then `O=C1N=C2C=CC(Br)=CN2C12CCCC2` [Example 1-C2, 6-Bromo-3,3-spiro[cyclopentane]-imidazo[1,2-a]pyridin-2-one], with 35%; and `CC1(C)C(=O)N=C2C=CC(c3cccc(Cl)c3)=CN21` [Example 2, 6-(3-Chloro-phenyl)-3,3-dimethyl-imidazo[1,2-a]pyridin-2-one], with 15%; and `O=C1N=C2C=CC(c3cccc(Cl)c3)=CN2C12CCCCC2` [Example 3, 6-(3-chloro-phenyl)-3,3-spiro[cyclohexane]-imidazo[1,2-a]pyridin-2-one], with 104%.
Regarding `CC1(C)C(=O)N=C2C=CC(c3cccc(C#N)c3)=CN21` [Example 4, 3-(3,3-Dimethyl-2-oxo-2,3-dihydro-imidazo[1,2-a]pyridin-6-yl)-benzonitrile], the “% inh.” value is 19%.
The same measure, in the same setting: then `CC1(C)C(=O)N=C2C=CC(Cl)=CN21` [Example 5, 6-Chloro-3,3-dimethyl-imidazo[1,2-a]pyridin-2-one], with 31%; and `O=C1N=C2C=CC(Cl)=CN2C12CCCCC2` [Example 6, 6-Chloro-spiro[cyclohexane]-imidazo[1,2-a]pyridin-2-one], with 42%.
Same read-out and setting: then `CC1(C)C(=O)N=C2C=CC(c3cc(F)cc(F)c3)=CN21` [Example 7, 6-(3,5-Difluoro-phenyl)-3,3-dimethyl-imidazo[1,2-a]pyridin-2-one], with 40%; and `CC1(C)C(=O)N=C2C=CC(c3cccc([N+](=O)[O-])c3)=CN21` [Example 8, 3,3-Dimethyl-6-(3-nitro-phenyl)-imidazo[1,2-a]pyridin-2-one], with 33%.
Still for that read-out and setting: with `CC1(C)C(=O)N=C2C=CC(c3cccc(C(F)(F)F)c3)=CN21` [Example 9, 3,3-Dimethyl-6-(3-trifluoromethyl-phenyl)-imidazo[1,2-a]pyridin-2-one] the figure was 17%; with `CC1(C)C(=O)N=C2C=CC(c3ccc(F)cc3F)=CN21` [Example 10, 6-(2,4-Difluoro-phenyl)-3,3-dimethyl-imidazo[1,2-a]pyridin-2-one], 29%.
In the case of `CC1(C)C(=O)N=C2C=CC(c3cc(C(F)(F)F)cc(C(F)(F)F)c3)=CN21` [Example 11, 6-(3,5-Bis-trifluoromethyl-phenyl)-3,3-dimethyl-imidazo[1,2-a]pyridin-2-one], the “% inh.” value was found to be 19%.
On the same count and under the same terms, then `COc1cccc(C2=CN3C(=NC(=O)C3(C)C)C=C2)c1` [Example 12, 6-(3-Methoxy-phenyl)-3,3-dimethyl-imidazo[1,2-a]pyridin-2-one], with 3.1%; and `CC1(C)C(=O)N=C2C=CC(c3cccc(F)c3)=CN21` [Example 13, 6-(3-Fluoro-phenyl)-3,3-dimethyl-imidazo[1,2-a]pyridin-2-one], with 14%.
The same measure, in the same setting: with `CC1(C)C(=O)N=C2C=CC(c3ccccc3Cl)=CN21` [Example 14, 6-(2-Chloro-phenyl)-3,3-dimethyl-imidazo[1,2-a]pyridin-2-one] the figure was 0%; with `O=C1N=C2C=CC(c3cccc(F)c3)=CN2C12CCCCC2` [Example 15, 6-(3-Fluoro-phenyl)-3,3-spiro[cyclohexane]-imidazo[1,2-a]pyridin-2-one], 0%.
The same measure, in the same setting: then `COc1cccc(C2=CN3C(=NC(=O)C34CCCCC4)C=C2)c1` [Example 16, 6-(3-Methoxy-phenyl)-3,3-spiro[cyclohexane]-imidazo[1,2-a]pyridin-2-one], with 01%.
Turning to `O=C1N=C2C=CC(c3cc(C(F)(F)F)cc(C(F)(F)F)c3)=CN2C12CCCCC2` [Example 17, 6-(3,5-Bis-trifluoromethyl-phenyl)-3,3-spiro[cyclohexane]-imidazo[1,2-a]pyridin-2-one], the “% inh.” value came out at 04%.
Same read-out and setting: then `O=C1N=C2C=CC(c3cccc([N+](=O)[O-])c3)=CN2C12CCCCC2` [Example 18, 6-(3-nitro-phenyl)-3,3-spiro[cyclohexane]-imidazo[1,2-a]pyridin-2-one], with 98%; and `O=C1N=C2C=CC(c3cccc(C(F)(F)F)c3)=CN2C12CCCCC2` [Example 19, 6-(3-trifluoromethyl-phenyl)-3,3-spiro[cyclohexane]-imidazo[1,2-a]pyridin-2-one], with 97%.
The same measure, in the same setting: then `N#Cc1cccc(C2=CN3C(=NC(=O)C34CCCCC4)C=C2)c1` [Example 20, 6-(3-cyano-phenyl)-3,3-spiro[cyclohexane]-imidazo[1,2-a]pyridin-2-one], with 96%; and `O=C1N=C2C=CC(c3cc(F)cc(F)c3)=CN2C12CCCCC2` [Example 21, 6-(3,5-Difluoro-phenyl)-3,3-spiro[cyclohexane]-imidazo[1,2-a]pyridin-2-one], with 99%; and `O=C1N=C2C=CC(c3ccc(Cl)c(Cl)c3)=CN2C12CCCCC2` [Example 22], with 88%.
Take `O=C1N=C2C=CC(c3ccc(F)cc3F)=CN2C12CCCCC2` [Example 23, 6-(2,4-Difluoro-phenyl)-3,3-spiro[cyclohexane]-imidazo[1,2-a]pyridin-2-one]: the “% inh.” value was determined as 96%.
Turning to `O=C1N=C2C=CC(c3cccc(Cl)c3)=CN2C12CCCC2` [Example 24, 6-(3-chloro-phenyl)-3,3-spiro[pentane]-imidazo[1,2-a]pyridin-2-one], the “% inh.” value was 1%.
Same read-out and setting: with `N#Cc1cccc(C2=CN3C(=NC(=O)C34CCCC4)C=C2)c1` [Example 25, 6-(3-cyano-phenyl)-3,3-spiro[pentane]-imidazo[1,2-a]pyridin-2-one] the figure was 2%.
For the molecule `O=C1N=C2C=CC(c3cccc(F)c3)=CN2C12CCCC2` [Example 26, 6-(3-Fluoro-phenyl)-3,3-spiro[pentane]-imidazo[1,2-a]pyridin-2-one], the “% inh.” value came out at 2%.
The same measure, in the same setting: then `O=C1N=C2C=CC(c3cccc([N+](=O)[O-])c3)=CN2C12CCCC2` [Example 27, 6-(3-nitro-phenyl)-3,3-spiro[pentane]-imidazo[1,2-a]pyridin-2-one], with 86%; and `O=C1N=C2C=CC(c3ccc(Cl)c(Cl)c3)=CN2C12CCCC2` [Example 28, 6-(3,4-Dichloro-phenyl)-3,3-spiro[pentane]-imidazo[1,2-a]pyridin-2-one], with 22%.
On the same count and under the same terms, then `O=C1N=C2C=CC(c3cc(C(F)(F)F)cc(C(F)(F)F)c3)=CN2C12CCCC2` [Example 29, 6-(3,5-Bis-trifluoromethyl-phenyl)-3,3-spiro[pentane]-imidazo[1,2-a]pyridin-2-one], with 25%; and `O=C1N=C2C=CC(c3ccc(F)c(Cl)c3)=CN2C12CCCC2` [Example 30, 6-(3-Chloro-4-fluoro-phenyl)-3,3-spiro[pentane]-imidazo[1,2-a]pyridin-2-one], with 21%.
